Earlier results as cited in patent publication US20110253140A1, “FORMULATIONS CONTAINING LARGE-SIZE CARRIER PARTICLES FOR DRY POWDER INHALATION AEROSOLS” (STC.UNM, priority 2008, published 2011).
Read-outs that look alike come from different tables or passages of the source.

lung deposition, % of the metered dose (PIF 35 L/min): 14.8%
lung deposition, % of the metered dose (peak inspiratory flow rate (PIF) 60 L/min): 27.7%
Structure (SMILES): CCCC1O[C@@H]2C[C@H]3[C@@H]4CCC5=CC(=O)C=C[C@]5(C)[C@H]4[C@@H](O)C[C@]3(C)[C@]2(C(=O)CO)O1 (some centres unmarked) [budesonide]
